Assay results: patent US4476120A, “Thiolic derivatives of erythromycin having therapeutic activity, and pharmaceutical compositions containing them” (Sigma Tau Indistrie Farmaceutiche Riunites, p.A, priority 1982, dated 1984)
In brackets after ≈: the same amount, converted by molar mass.

Legend:
Staph. albus SS 04 = type: cell-based; conditions: Brain Heart Infusion, estolate and RV11-RV15 previously hydrolized, unit assumed
Staph. aureus SS 08 = type: cell-based; conditions: Brain Heart Infusion, estolate and RV11-RV15 previously hydrolized, unit assumed
H. influentiae SS 02 = type: cell-based; conditions: Brain Heart Infusion, estolate and RV11-RV15 previously hydrolized, unit assumed
S. infantis SS 08 = type: cell-based; conditions: Brain Heart Infusion, estolate and RV11-RV15 previously hydrolized, unit assumed
E. cloacae SS 07 = type: cell-based; conditions: Brain Heart Infusion, estolate and RV11-RV15 previously hydrolized, unit assumed
[1] = system: Strept. haemolyticus SS 18; type: cell-based; conditions: Brain Heart Infusion, estolate and RV11-RV15 previously hydrolized, unit assumed
Citrobacter SS 05 = type: cell-based; conditions: Brain Heart Infusion, estolate and RV11-RV15 previously hydrolized, unit assumed
Citrobacter SS 09 = type: cell-based; conditions: Brain Heart Infusion, estolate and RV11-RV15 previously hydrolized, unit assumed
Pr. mirabilis SS 09 = type: cell-based; conditions: Brain Heart Infusion, estolate and RV11-RV15 previously hydrolized, unit assumed
Staph. aureus SS 07 = assay: Experimental infection induced by Staph. aureus SS 07; type: in vivo, Swiss white mice; conditions: Staph. aureus SS 07, mg/kg of erythromycin, survival after 7 days, 10080 min
How it was run: (§1)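 Swiss mice of 20 g infected parenterally with lethal amounts of Staph. aureus SS 07 or D. pneumoniae SS 23. Antibiotics were given at infection and again 6 and 24 h later. ED50 was derived from survival at 7 days.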

Sr. marcescens SS 03 = type: cell-based; conditions: Brain Heart Infusion, estolate and RV11-RV15 previously hydrolized, unit assumed
H. pertussis SS 03 = type: cell-based; conditions: Brain Heart Infusion, estolate and RV11-RV15 previously hydrolized, unit assumed
S. heidelberg SS 18 = type: cell-based; conditions: Brain Heart Infusion, estolate and RV11-RV15 previously hydrolized, unit assumed
Strept. faecalis SS 19 = type: cell-based; conditions: Brain Heart Infusion, estolate and RV11-RV15 previously hydrolized, unit assumed
B. cereus ATCC 11778 = type: cell-based; conditions: Brain Heart Infusion, estolate and RV11-RV15 previously hydrolized, unit assumed
B. subtilis SS 127 = type: cell-based; conditions: Brain Heart Infusion, estolate and RV11-RV15 previously hydrolized, unit assumed
Br. abortus SS 7 = type: cell-based; conditions: Brain Heart Infusion, estolate and RV11-RV15 previously hydrolized, unit assumed
D. pneumoniae SS 23 [2] = type: cell-based; conditions: Brain Heart Infusion, estolate and RV11-RV15 previously hydrolized, unit assumed
E. coli SS 05 = type: cell-based; conditions: Brain Heart Infusion, estolate and RV11-RV15 previously hydrolized, unit assumed
E. coli SS 06 = type: cell-based; conditions: Brain Heart Infusion, estolate and RV11-RV15 previously hydrolized, unit assumed
Pr. vulgaris SS 10 = type: cell-based; conditions: Brain Heart Infusion, estolate and RV11-RV15 previously hydrolized, unit assumed
Staph. aureus SS 10 = type: cell-based; conditions: Brain Heart Infusion, estolate and RV11-RV15 previously hydrolized, unit assumed
E. aerogenes SS 011 = type: cell-based; conditions: Brain Heart Infusion, estolate and RV11-RV15 previously hydrolized, unit assumed
E. coli SS 04 = type: cell-based; conditions: Brain Heart Infusion, estolate and RV11-RV15 previously hydrolized, unit assumed
S. lutea ATCC 9341 = type: cell-based; conditions: Brain Heart Infusion, estolate and RV11-RV15 previously hydrolized, unit assumed
[3] = system: Strept. haemolyticus SS 17; type: cell-based; conditions: Brain Heart Infusion, estolate and RV11-RV15 previously hydrolized, unit assumed
Staph. albus SS 03 = type: cell-based; conditions: Brain Heart Infusion, estolate and RV11-RV15 previously hydrolized, unit assumed
Cl. tetani SS 17 = type: cell-based; conditions: Brain Heart Infusion, estolate and RV11-RV15 previously hydrolized, unit assumed
D. pneumoniae SS 23 [4] = assay: Experimental infection induced by D. pneumoniae SS 23; type: in vivo, Swiss white mice; conditions: D. pneumoniae SS 23, mg/kg of erythromycin, survival after 7 days, 10080 min
How it was run: as §1

Staph. aureus SS 09 = type: cell-based; conditions: Brain Heart Infusion, estolate and RV11-RV15 previously hydrolized, unit assumed
Ps. aeruginosa SS 10 = type: cell-based; conditions: Brain Heart Infusion, estolate and RV11-RV15 previously hydrolized, unit assumed
Br. melitensis SS 19 = type: cell-based; conditions: unit assumed
C. diphtheriae SS 19 = type: cell-based; conditions: Brain Heart Infusion, estolate and RV11-RV15 previously hydrolized, unit assumed
[5] = Histological examination of bronchi after SO2 inhalation; type: in vivo, Sprague Dawley male rats; conditions: i.m., 250 mg/kg
B. anthranis SS 08 = type: cell-based; conditions: Brain Heart Infusion, estolate and RV11-RV15 previously hydrolized, unit assumed
Kl. aerogenes SS 71 = type: cell-based; conditions: Brain Heart Infusion, estolate and RV11-RV15 previously hydrolized, unit assumed
C. albicans SS 04 = type: cell-based; conditions: Brain Heart Infusion, estolate and RV11-RV15 previously hydrolized, unit assumed
Acute toxicity = type: in vivo; conditions: mortality 10 days after treatment, mice
Experimental: The acute toxicity was assessed in Swiss white mice by oral and intravenous route. The LD50 values have been calculated by the methods of Probits, starting from the mortality recorded 10 days after the treatment.

N. meningitidis SS 04 = type: cell-based; conditions: Brain Heart Infusion, estolate and RV11-RV15 previously hydrolized, unit assumed
E. coli SS 07 = type: cell-based; conditions: Brain Heart Infusion, estolate and RV11-RV15 previously hydrolized, unit assumed
H. tubercolosis SS 03 = type: cell-based; conditions: Brain Heart Infusion, estolate and RV11-RV15 previously hydrolized, unit assumed
Text: (§2) In the following table I the MIC/ml values are indicated corresponding to the lowest concentration capable of inducing a complete inhibition of the bacterial development.

Kl. pneumoniae SS 04 = type: cell-based; conditions: Brain Heart Infusion, estolate and RV11-RV15 previously hydrolized, unit assumed
Text: as §2

N. gonorreae SS 27 = type: cell-based; conditions: Brain Heart Infusion, estolate and RV11-RV15 previously hydrolized, unit assumed

**Q.** For CC[C@H]1OC(=O)[C@H](C)[C@@H](O[C@H]2C[C@@](C)(OC)[C@@H](O)[C@H](C)O2)[C@H](C)[C@@H](O[C@@H]2O[C@H](C)C[C@H](N(C)C)[C@H]2O)[C@](C)(O)C[C@@H](C)C(=O)[C@H](C)[C@@H](O)[C@]1(C)O [RV04, erythromycin-S-carboxymethylcysteinate], which MIC (Staph. albus SS 04) is on record?
**A.** 0.05 µg/mL (≈ 0.0681 µM)

**Q.** And the MIC (Staph. aureus SS 08)?
**A.** 0.05 µg/mL (≈ 0.0681 µM)

**Q.** What about the MIC (H. influentiae SS 02) of the same compound?
**A.** 1.5 µg/mL (≈ 2.04 µM)

**Q.** What about the MIC (S. infantis SS 08) of the same compound?
**A.** 100 µg/mL (≈ 136 µM)

**Q.** What about the MIC (E. cloacae SS 07) of the same compound?
**A.** > 200 µg/mL

**Q.** What about the MIC [1] of the same compound?
**A.** 1.5 µg/mL (≈ 2.04 µM)

**Q.** What about the MIC (Citrobacter SS 05) of the same compound?
**A.** > 200 µg/mL

**Q.** What about the MIC (Citrobacter SS 09) of the same compound?
**A.** > 200 µg/mL

**Q.** And the MIC (Pr. mirabilis SS 09)?
**A.** 200 µg/mL (≈ 273 µM)

**Q.** What about the “ED50 (reliability limits)” value (Staph. aureus SS 07; os) of the same compound?
**A.** 2.31 (2.55-2.09) mg/kg

**Q.** What about the “ED50 (reliability limits)” value (Staph. aureus SS 07; s.c.) of the same compound?
**A.** 1.00 (1.24-0.80) mg/kg

**Q.** And the MIC (Sr. marcescens SS 03)?
**A.** > 200 µg/mL

**Q.** What about the MIC (H. pertussis SS 03) of the same compound?
**A.** 0.8 µg/mL (≈ 1.09 µM)

**Q.** What about the MIC (S. heidelberg SS 18) of the same compound?
**A.** 100 µg/mL (≈ 136 µM)

**Q.** And the MIC (Strept. faecalis SS 19)?
**A.** 0.05 µg/mL (≈ 0.0681 µM)

**Q.** And the MIC (B. cereus ATCC 11778)?
**A.** 0.2 µg/mL (≈ 0.273 µM)

**Q.** And the MIC (B. subtilis SS 127)?
**A.** 0.025 µg/mL (≈ 0.0341 µM)

**Q.** What about the MIC (Br. abortus SS 7) of the same compound?
**A.** 6 µg/mL (≈ 8.18 µM)

**Q.** What about the MIC (D. pneumoniae SS 23 [2]) of the same compound?
**A.** 0.05 µg/mL (≈ 0.0681 µM)

**Q.** And the MIC (E. coli SS 05)?
**A.** 50 µg/mL (≈ 68.1 µM)

**Q.** And the MIC (E. coli SS 06)?
**A.** 100 µg/mL (≈ 136 µM)

**Q.** And the MIC (Pr. vulgaris SS 10)?
**A.** > 200 µg/mL

**Q.** And the MIC (Staph. aureus SS 10)?
**A.** 0.2 µg/mL (≈ 0.273 µM)

**Q.** What about the MIC (E. aerogenes SS 011) of the same compound?
**A.** 50 µg/mL (≈ 68.1 µM)

**Q.** And the MIC (E. coli SS 04)?
**A.** 100 µg/mL (≈ 136 µM)

**Q.** And the MIC (S. lutea ATCC 9341)?
**A.** 0.01 µg/mL (≈ 0.0136 µM)

**Q.** What about the MIC [3] of the same compound?
**A.** 1.5 µg/mL (≈ 2.04 µM)

**Q.** And the MIC (Staph. albus SS 03)?
**A.** 0.1 µg/mL (≈ 0.136 µM)

**Q.** And the MIC (Cl. tetani SS 17)?
**A.** 0.2 µg/mL (≈ 0.273 µM)

**Q.** And the “ED50 (reliability limits)” value (D. pneumoniae SS 23 [4]; os)?
**A.** 119.31 (152.88-92.95) mg/kg

**Q.** What about the “ED50 (reliability limits)” value (D. pneumoniae SS 23 [4]; s.c.) of the same compound?
**A.** 60.17 (70.74-51.18) mg/kg

**Q.** And the MIC (Staph. aureus SS 09)?
**A.** 0.025 µg/mL (≈ 0.0341 µM)

**Q.** What about the MIC (Ps. aeruginosa SS 10) of the same compound?
**A.** 100 µg/mL (≈ 136 µM)

**Q.** And the MIC (Br. melitensis SS 19)?
**A.** 6 µg/mL (≈ 8.18 µM)

**Q.** And the MIC (C. diphtheriae SS 19)?
**A.** 0.205 µg/mL (≈ 0.279 µM)

**Q.** What about the “histological appearance of non obstructed bronchi” value ([5]; free non obstructed) of the same compound?
**A.** practically normal appearance

**Q.** What about the “histological appearance of obstructed bronchial tract” value ([5]; obstructed) of the same compound?
**A.** an appearance like that of the control animals

**Q.** What about the MIC (B. anthranis SS 08) of the same compound?
**A.** 0.4 µg/mL (≈ 0.545 µM)

**Q.** What about the MIC (Kl. aerogenes SS 71) of the same compound?
**A.** 50 µg/mL (≈ 68.1 µM)

**Q.** And the MIC (C. albicans SS 04)?
**A.** 100 µg/mL (≈ 136 µM)

**Q.** And the “LD50 (reliability limits)” value (Acute toxicity; i.v., 14400 min)?
**A.** 439.46 (545.44-354.08) mg.kg

**Q.** And the “LD50 (reliability limits)” value (Acute toxicity; os)?
**A.** > 3000 mg·kg

**Q.** And the MIC (N. meningitidis SS 04)?
**A.** 1.5 µg/mL (≈ 2.04 µM)

**Q.** And the MIC (E. coli SS 07)?
**A.** 25 µg/mL (≈ 34.1 µM)

**Q.** And the MIC (H. tubercolosis SS 03)?
**A.** 50 µg/mL (≈ 68.1 µM)

**Q.** What about the MIC (Kl. pneumoniae SS 04) of the same compound?
**A.** 100 µg/mL (≈ 136 µM)

**Q.** And the MIC (N. gonorreae SS 27)?
**A.** 0.8 µg/mL (≈ 1.09 µM)
